Test results taken from patent publication US20100160207A1, “Feedback Prodrug” (University of Georgia Research Foundation, Inc., priority 2006, published 2010).
One block for each compound: values may come before it.

Key:
[1] = target: T1, human lysosomal mannosidase (HLM) (Homo sapiens, UniProt O00754); conditions: Li et al., Chem. Bio. Chem. 2004; cited from earlier work
T1 sequence (O00754 50-1011): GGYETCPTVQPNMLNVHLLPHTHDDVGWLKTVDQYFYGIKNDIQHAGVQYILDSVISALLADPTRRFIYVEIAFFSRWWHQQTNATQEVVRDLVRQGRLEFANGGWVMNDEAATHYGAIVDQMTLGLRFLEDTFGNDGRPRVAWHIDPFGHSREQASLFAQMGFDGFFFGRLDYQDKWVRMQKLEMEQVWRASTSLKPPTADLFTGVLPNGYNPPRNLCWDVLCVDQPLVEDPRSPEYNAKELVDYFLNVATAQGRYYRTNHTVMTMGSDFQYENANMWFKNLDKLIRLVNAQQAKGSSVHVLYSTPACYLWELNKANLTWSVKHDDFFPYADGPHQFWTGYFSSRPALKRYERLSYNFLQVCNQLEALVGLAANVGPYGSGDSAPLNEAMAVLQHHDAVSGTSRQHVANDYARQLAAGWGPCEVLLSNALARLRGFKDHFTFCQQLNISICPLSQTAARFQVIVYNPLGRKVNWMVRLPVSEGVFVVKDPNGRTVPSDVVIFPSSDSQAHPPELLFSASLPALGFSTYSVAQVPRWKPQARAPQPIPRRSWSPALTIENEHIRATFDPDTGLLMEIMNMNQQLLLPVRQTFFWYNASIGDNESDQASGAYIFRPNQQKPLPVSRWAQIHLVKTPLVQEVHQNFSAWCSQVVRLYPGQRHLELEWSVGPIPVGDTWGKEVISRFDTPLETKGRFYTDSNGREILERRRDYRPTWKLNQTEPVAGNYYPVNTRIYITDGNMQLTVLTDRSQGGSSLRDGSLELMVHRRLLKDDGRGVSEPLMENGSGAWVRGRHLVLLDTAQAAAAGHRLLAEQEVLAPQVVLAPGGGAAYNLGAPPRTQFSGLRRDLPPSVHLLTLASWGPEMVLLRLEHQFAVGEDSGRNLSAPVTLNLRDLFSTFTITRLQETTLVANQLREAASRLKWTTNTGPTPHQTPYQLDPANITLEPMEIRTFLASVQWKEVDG

[2] = target: T1, human lysosomal mannosidase (HLM); experiment: Inhibition of human lysosomal mannosidase; format: biochemical
MDAY-D2 lymphoma cells = experiment: Inhibition of cell surface polylactosamine biosynthesis (L-PHA lectin blot); format: cell-based; conditions: MDAY-D2 cells cultured for two days
Protocol: MDAY-D2 cells were cultured for 2 days in the absence (control) or presence of different concentrations of compounds 14 (a) or 15 (b). Cellular proteins (10 μg) were subjected to SDS-PAGE and polylactosamine was visualized using a fluorescein labeled L-PHA lectin (upper part figure). Fluorescence bands were scanned by laser beam densitometry, and the relative intensity depicted (lower part figure).
It is known that the metastatic MDAY-D2 lymphoma cell line over-expresses the enzyme N-acetyl glucosaminyltransferase V (GnTV) (Goss et al., Clin. Cancer Res. 1995, 1, 935). […] Subsequently, the presence of polylactosamine linked to proteins was determined by analyzing cell lysates by Western blotting using a fluorescein labeled PHA lectin (Dennis et al., Cancer Res. 1990, 50, 1867).
Cell maintenance. […] New batches of frozen cell stock were grown up every 2 months and growth morphology was evaluated.
Inhibition of cell surface polylactosamine biosynthesis. […] Protein concentrations were determined using the BCA reagent (Pierce) and cellular proteins (10 μg) were separated by SDS-PAGE using 4-20% linear gradient polyacrylamide gels (Bio-Rad). […] Fluorescence bands were imaged at 495 nm (absorbance)/520 nm (emission) and the intensity scanned by laser beam densitometry (Typhoon 9410 Imager; Amersham Biosciences).

α-L-fucosidase = experiment: Negative enzyme control experiment, α-L-fucosidase; format: biochemical; conditions: 0.1 Unit, MES buffer pH 5.5, 37° C., 20 h
Protocol: (§1) Compounds 1 and 2 were subjected to an α-glucosidase, α-fucosidase and α-galactosidase.
(§2) Negative enzyme control experiments. A solution of compound 1 or 2 (0.004 mmol) and α-glucosidase, α-galactosidase or α-L-fucosidase (0.1 Unit) in MES buffer (0.05 M; pH 6.8 for α-glucosidase, pH 6.5 for α-galactosidase or pH 5.5 for α-L-fucosidase; 1 ml) was incubated at 37° C. for 20 h, after which the reaction mixture was freezing-dried, and the solid residue was analyzed by ^1H NMR spectrometry and mass spectrometry.

α-glucosidase = experiment: Negative enzyme control experiment, α-glucosidase; format: biochemical; conditions: 0.1 Unit, MES buffer pH 6.8, 37° C., 20 h
Protocol: as §1, §2

[3] = target: T1, human lysosomal mannosidase (HLM); experiment: Enzymatic cleavage of prodrugs by human lysosomal mannosidase monitored by 1H NMR; format: biochemical; conditions: HLM 20 mU, 80 nmol compound, sodium acetate buffer pH 5.6, 37° C.
Protocol: HLM ([…]) was added to a solution of 2 (a) or 1 (b) ([…]) in a deuterated sodium acetate buffer (100 mM, pH, 5.6, 0.2 mL) and the enzymatic cleavage was monitored by ^1H NMR (600 MHz).
The enzymatic cleavage of 1 and 2 by human lysosomal mannosidase (HLM) was monitored by ^1H NMR (600 MHz) (Wilson et al., Org. Lett. 1999, 1, 443) Thus, HLM (20 mU) was added to a solution of 1 or 2 (80 nmol) dissolved in a deuterated sodium acetate buffer (100 mM, pH 5.6, 0.2 mL). The progress of the reaction was monitored by the integration of key signals of the starting material, the intermediate and final product. […] In this case, the released mannostatin A (5) inhibits HLM terminating further hydrolysis of 1. Mannostatin A is a potent inhibitor of retaining α-mannosidases (Ki=90 nM, HLM) (Li et al., Chem. Bio. Chem. 2004, 5, 1220) and thus the release of low concentrations of the active compound is sufficient to abolish enzyme activity.
Kinetic measurements. A solution of compound 1 or 2 (0.08 μmol) and human lysosomal mannosidase (HLM, 0.02 Unit) in deuterated sodium acetate buffer (0.1 M; pH 5.6; 0.2 ml) was incubated at 37° C., and ^1H NMR spectra (600 MHz) were recorded at different time intervals. Relevant signals were integrated to determine the rate of enzymatic hydrolysis, and the appearance of the intermediate and the final product.

α-galactosidase = experiment: Negative enzyme control experiment, α-galactosidase; format: biochemical; conditions: 0.1 Unit, MES buffer pH 6.5, 37° C., 20 h
Protocol: as §1, §2

[4] = Self-decomposition half-time of the intermediate released from prodrug 2 by Jack Bean mannosidase, followed by 1H NMR; format: physicochemical; conditions: phosphate/citrate buffer
Protocol: Next, the pH dependence of the self-fragmentation of intermediates 3 and 4 was investigated. It is well known that different organelles have different pH values. […] Golgi mannosidase II has been identified as a target for anti-metastatic therapy (Goss et al., Clin. Cancer Res. 1995, 1, 935; Elbein, FASEB J. 1991, 5, 3055), whereas inhibition of lysosomal mannosidase leads to the phenotype of lysosomal storage disease. […] Thus, compound 2 (0.4 mM) in sodium acetate buffers of different pH was treated with a large quantity (7 Units/mL) of Jack Bean α-mannosidase (JBM) to completely convert the prodrug into intermediate 4. Subsequently, the decomposition of 4 was monitored by ^1H NMR by integration of key signals of the intermediate and final product. […] The results of these experiments indicate that in a compartment such as the medial Golgi, which has a pH close to neutral, the decomposition of the intermediate will occur in minutes, which is probably fast enough for rebinding of the inhibitor.
Self-decomposition half-time measurements. A solution of compound 2 (0.08 μmol) and Jack Bean mannosidase (JBM) (1.4 Units) in deuterated 0.2 M phosphate/0.1 M citrate buffer (pH=4.0, 4.5, 5.0, 5.5, 6.0 or 6.5; 0.2 ml) was incubated at 37° C. or 25° C., and ^1H NMR spectra (600 MHz) were recorded at different time intervals. Relevant signals were integrated to determine the appearance of the intermediate 4 and the final product 6, and the decomposition rate.

[5] = Stability measurements in deuterated sodium acetate buffer by 1H NMR; format: physicochemical; conditions: 0.4 mM, sodium acetate buffer pH 4.0, 37° C., 6 days
Protocol: Stability measurements. A solution of compound 1 or 2 (0.4 mM) in deuterated sodium acetate buffer (100 mM; pH 4.0; 0.2 ml) in a NMR tube was incubated at 37° C. for 6 days. ^1H NMR spectra were recorded every day.

Compound: CS[C@@H]1[C@@H](N)[C@@H](O)[C@@H](O)[C@H]1O [Mannostatin A, mannostatin A]
Ki [1]: 90 nM

inhibition of HLM [2]: not an inhibitor of HLM
Compound: NC1C(O)C(O)C(O)C1O (centres unmarked) [Compound 6, aminocyclopentitetrol]

Compound: CSC1C(NC(=O)OCc2ccc(O[C@H]3O[C@H](COC(C)=O)[C@@H](OC(C)=O)[C@H](OC(C)=O)[C@@H]3OC(C)=O)cc2)C(OC(C)=O)C(OC(C)=O)C1OC(C)=O (stereo partly drawn) [Compound 14, 1D-(1,2,3,4/5)-4-[4-(2,3,4,6-tetra-O-acetyl-α-D-mannopyranosyloxy)-benzyloxycarbonyl]amino-1,2,3-tri-O-acetyl-5-(methylsulfanyl)cyclopentane-1,2,3-triol]
reduction in fluorescein labeling (polylactosamine) (MDAY-D2 lymphoma cells; 1 μM): 50%

Compound: CC(=O)OC[C@H]1O[C@H](Oc2ccc(COC(=O)NC3C(OC(C)=O)C(OC(C)=O)C(OC(C)=O)C3OC(C)=O)cc2)[C@@H](OC(C)=O)[C@@H](OC(C)=O)[C@@H]1OC(C)=O (stereo partly drawn) [Compound 15, (1,4/2,3,5)-5-[4-(2,3,4,6-tetra-O-acetyl-α-D-mannopyranosyloxy)-benzyloxycarbonyl]amino-1,2,3,4-tetra-O-acetyl-1,2,3,4-cyclopentanetetrol]
inhibitory activity on polylactosamine formation (MDAY-D2 lymphoma cells; 0.1-100 μM): did not display any inhibitory activity

decomposition by α-L-fucosidase (α-L-fucosidase): No decomposition of product was observed
decomposition by α-glucosidase (α-glucosidase): No decomposition of product was observed
enzymatic hydrolysis of the prodrug by HLM [3]: progressed to completion
decomposition by α-galactosidase (α-galactosidase): No decomposition of product was observed
half-life of self-fragmentation ([4]; pH 4.0, 25° C.): 46.67 h
half-life of self-fragmentation ([4]; pH 4.0, 37° C.): 8 h
half-life of self-fragmentation ([4]; pH 4.5, 37° C.): 4.5 h
half-life of self-fragmentation ([4]; pH 5.0, 37° C.): 1.67 h
half-life of self-fragmentation ([4]; pH 5.5, 37° C.): 0.75 h
half-life of self-fragmentation ([4]; pH 6.0, 37° C.): 0.267 h
half-life of self-fragmentation ([4]; pH 6.5, 25° C.): 0.75 h
half-life of self-fragmentation ([4]; pH 6.5, 37° C.): 0.15 h
decomposition in buffer [5]: No decomposition of product was observed
Compound: O=C(NC1C(O)C(O)C(O)C1O)OCc1ccc(O[C@H]2O[C@H](CO)[C@@H](O)[C@H](O)[C@@H]2O)cc1 (stereo partly drawn) [Compound 2, (1,4/2,3,5)-5-[4-(α-D-mannopyranosyloxy)-benzyloxycarbonyl]amino-1,2,3,4-cyclopentanetetrol]
